As usually defined, the bioavailability is dose-corrected exposure relative to a reference, in per cent.

Data set [1] has as its system malignant cells from B-cell chronic lymphocytic leukemia (B-CLL). As to conditions: in vitro; cited from earlier work.
Data set [2] relates to human tumour derived cell lines. Nature of the data set: Xenograft studies. The class given is in vivo, nude mice. As to conditions: sub-cutaneous xenografts, dosed orally. The text has this: These biomarkers include suppression of phosphorylation of substrates of the cyclin dependent kinases e.g. retinoblastoma protein. The compound is effective when given in a range of different schedules including chronic dosing for several weeks.

A further data set addresses T1, CDK1/CyclinB (Homo sapiens, UniProt P06493).
T1 construct: purchased Upstate Discovery
Nature of the data set: Activated CDK1/CyclinB kinase inhibitory activity assay. The class given is biochemical. How it is done:
CDK1/CyclinB assay is identical to the CDK2/CyclinA above except that CDK1/CyclinB (Upstate Discovery) is used and the enzyme is diluted to 6.25 nM.

In data set [3] the test system is transcription in HCT-116 cells.
The next data set concerns HCT-116 cell line. Nature of the data set: Anti-proliferative activity, Alamar Blue assay. Format: cell-based, human. Conditions: for IC50: read-out: HCT-116 cell proliferation IC50, 72 hours with compound. How it is done: (§1) Inhibition of cell growth is measured using the Alamar Blue assay (Nociari, M. M, Shalev, A., Benias, P., Russo, C. Journal of Immunological Methods 1998, 213, 157-167). The method is based on the ability of viable cells to reduce resazurin to its fluorescent product resorufin. For each proliferation assay cells are plated onto 96 well plates and allowed to recover for 16 hours prior to the addition of inhibitor compounds for a further 72 hours. At the end of the incubation period 10% (v/v) Alamar Blue is added and incubated for a further 6 hours prior to determination of fluorescent product at 535nM ex/590nM em. In the case of the non-proliferating cell assay cells are maintained at confluence for 96 hour prior to the addition of inhibitor compounds for a further 72 hours. The number of viable cells is determined by Alamar Blue assay as before. Cell lines can be obtained from the ECACC (European Collection of cell Cultures).
as §1, with “535 nM ex/590 nM” for “535nM ex/590nM”, “EC ACC” for “ECACC”
A general note: The colour change of resazurin is a common sign of viable cells or microbes.

The nature of data set [4]: Determination of oral bioavailability. The class given is in vivo. As to conditions: balb/c, mouse, plasma, 5 mg/kg, mice. How it is done: The oral bioavailability of the compound of formula (I) may be determined as follows.
The test compound is administered as a solution both I.V. and orally to balb/c mice at the following dose level and dose formulations; • 1 mg/kg IV formulated in 10%DMSO/90% (2-hydroxypropyl)-β-cyclodextrin (25% w/v); and • 5 mg/kg PO formulated in 10% DMSO/20% water/70% PEG200.
At various time points after dosing, blood samples are taken in heparinised tubes and the plasma fraction is collected for analysis. The analysis is undertaken by LC-MS/MS after protein precipitation and the samples are quantified by comparison with a standard calibration line constructed for the test compound. The area under the curve (AUC) is calculated from the plasma level vs time profile by standard methods. The oral bioavailability as a percentage is calculated from the following equation: […]

Data set [5] can be described thus: Vapour sorption/desorption analysis. Format: physicochemical. As to conditions: 25 °C. How it is done: Approximately 20 mg of sample was placed into a wire-mesh vapour sorption balance pan and loaded into an ‘IgaSorp’ vapour sorption balance (Hiden Analytical Instruments) held at 25±0.1° C. The sample was then dried by maintaining a 0% humidity environment (using mass flow control apparatus) until no further weight change was recorded. Subsequently, the sample was then subjected to a ramping profile from 0-90% relative humidity (% RH) at 10% RH increments, maintaining the sample at each step until equilibration had been attained (99.5% step completion).
Upon reaching equilibration, the % RH within the apparatus was ramped to the next step and the equilibration procedure repeated. After completion of the sorption cycle, the sample was then dried using the same procedure. The weight change during the sorption/desorption cycles was then monitored, allowing for the hygroscopic nature of the sample to be determined.

Read-outs that look alike come from different tables or passages of the source.

T1 sequence (P06493 whole entry): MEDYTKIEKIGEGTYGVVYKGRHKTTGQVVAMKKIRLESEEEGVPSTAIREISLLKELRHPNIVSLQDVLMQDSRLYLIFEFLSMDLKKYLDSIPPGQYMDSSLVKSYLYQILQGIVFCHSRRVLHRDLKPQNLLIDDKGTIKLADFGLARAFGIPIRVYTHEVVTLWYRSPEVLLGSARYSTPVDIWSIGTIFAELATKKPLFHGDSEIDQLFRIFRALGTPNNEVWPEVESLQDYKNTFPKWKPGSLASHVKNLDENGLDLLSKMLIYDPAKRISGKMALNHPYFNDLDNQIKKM
T1 sequence (P14635 whole entry partner): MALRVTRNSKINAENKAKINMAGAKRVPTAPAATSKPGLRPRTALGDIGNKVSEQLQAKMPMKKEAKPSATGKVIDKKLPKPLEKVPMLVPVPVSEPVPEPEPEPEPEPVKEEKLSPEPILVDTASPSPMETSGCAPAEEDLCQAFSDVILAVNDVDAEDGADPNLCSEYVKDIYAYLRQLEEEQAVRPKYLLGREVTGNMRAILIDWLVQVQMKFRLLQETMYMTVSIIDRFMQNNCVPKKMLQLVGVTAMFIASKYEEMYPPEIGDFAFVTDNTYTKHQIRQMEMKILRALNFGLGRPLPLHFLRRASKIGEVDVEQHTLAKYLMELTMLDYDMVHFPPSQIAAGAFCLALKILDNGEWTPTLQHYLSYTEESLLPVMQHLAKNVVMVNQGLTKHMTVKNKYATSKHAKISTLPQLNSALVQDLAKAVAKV

With `CC[C@H](CO)Nc1nc(NCc2ccccc2)c2ncn(C(C)C)c2n1` [CYC 202], the “Apoptosis of B-CLL cells” value in data set [1] is given as “induce in vitro apoptosis”.
On to `CN1CC[C@H](c2c(O)cc(O)c3c(=O)cc(-c4ccccc4Cl)oc23)[C@H](O)C1` [Flavopiridol], for which the “Apoptosis of B-CLL cells” value in data set [1] is “induce in vitro apoptosis”.
As for `CS(=O)(=O)N1CCC(NC(=O)c2n[nH]cc2NC(=O)c2c(Cl)cccc2Cl)CC1` [compound of the invention, 4-(2,6-dichloro-benzoylamino)-1H-pyrazole-3-carboxylic acid (1-methanesulphonyl-piperidin-4-yl)-amide], the “Effect on tumour growth in xenografts” value in data set [2] is given as “inhibition of tumour growth”. Also, the IC50 at CDK1/CyclinB was below 1000 nM; in the data set with HCT-116 cell line, below 1000 nM; with HCT-116 cell line (listed as Compound of the Invention), 110 nM. Also, the “IC50 for transcription higher than IC50 for proliferation” value in data set [3] is around 100 fold. Further, the “More potent anti-proliferative effect on HCT-116 compared to difluoro-analogue” value in the data set on HCT-116 cell line is 6-7 fold. The bioavailability in data set [4] was in the range of 40 to 50%. For the same compound, the “Weight loss during initial drying” value in data set [5] (0% RH) is recorded as “approximately 0.01%”. In data set [5] (upon equilibration at 90% RH), this compound yielded a Total weight increase of 0.24%.
